The values that follow come from patent US6656955B2, “Pharmaceutical composition having enhanced antitumor activity and/or reduced side effects, containing an antitumor agent and an hydroximic acid derivative” (priority 1997, dated 2003).

The structures appear in SMILES notation.

One series relates to P-388 leukemia cells. Put plainly: Survival of mice inoculated with P-388 leukemia. Type of series: in vivo, BDF1 mice. Conditions: for Long term Percent survival / Long term Survivors/Total: day 45. The method, then:
(§1) In vivo experiments with mice. Single or repeated treatments started on day 1 following transplantation of P-388 or S-180 tumor The therapeutic effectiveness was evaluated on the basis of survival time and tumor volume. The experiments were terminated after 45 days. Long-term survival of mice were not followed beyond 45 days, but the end point was on day 46 following tumor transplantation. The comparative antitumor effect of various treatment groups on the median survival time in days for treated versus control groups was expressed as T/C.
Treatments started 1 day after the i.p. tumor transplantation.

Series [1] deals with Wistar rats. Put plainly: Tissue damage: intracellular enzyme release into serum of cisplatin-treated rats. Type of series: in vivo, rat. The settings on record: after two weeks, cisplatin 50 mg/kg daily, compound L 40 mg/kg daily. The protocol:
(§2) In vivo experiments with rats. […] The animals were healthy (without any tumor inoculation) at the beginning of the experiment, and the dose of the antitumor compound was provocatively/unusually high which by itself would cause tissue damage with high probability. […] During treatment, cardiac function of animals was followed by ECG, and after two weeks of treatment enzymatic activity in the blood of animals was determined.
Tissue damage was evaluated by measuring intracellular release of enzymes. Enzymatic activity was determined by the method of H. U. Bergmeyer. (Methods in Enzymatic Analysis, 2nd edition, Academic Press (1974)/. The following enzymes were measured:
GOT=glutamate-oxalacetate-transaminase,
GPT=glutamate-piruvate-transaminase,
LDH=lactate dehydrogenase,
LipDH=lipoamide-dehydrogenase,
Enzymatic activity is given in mUnit/m1 serum.

Series [2] has as its system Sp-2 (mouse myeloma, suspension) cells. Put plainly: Surviving tumor cells in cell culture, trypan blue counting. The class given is cell-based. Conditions: Sp-2 cells, compound L 40 microgram/ml. The protocol: Experiments with cell culture. Sp-2 (mouse myeloma, suspension) cells were plated on DMEM (Dubelso modified Eagle medium) in the presence of 10% FCS (fetal calf serum). Cells were plated on 96 hole plate with a starting cell number of 10^4/250 μl.
48 hours after treatment, i.e., addition of the above listed compounds, cells in the holes were counted in a method of staining them with 10 microliter of tripaneblue following suspension. Counting was done in B{overscore (u)}rker chamber.
In this case, one portion of cells were plated without the presence of drug, one portion of cells were plated in the presence of 13 microgram/ml fluoroacil, another portion in the presence of 13 microgram/ml fluoroacil+40 microgram/ml compound “L”. Survival rate was examined […] after treatment.

Series [3] concerns Wistar rats. Put plainly: One month survival after two week treatment of rats. The class given is in vivo. The settings on record: cisplatin 50 mg/kg daily, compound L 40 mg/kg daily. The method, then: as §2
It was investigated how many percent of animals were still alive following a two week treatment detailed above.

A further series deals with S-180 sarcoma. Put plainly: Tumor growth inhibition, S-180 solid tumor in mice. Conditions: single (FIG. 1) or repeated injections (FIG. 2). The class given is in vivo. The method, then: as §1
In the case of S-180 solid tumor the tumor growth inhibitory effect of compounds was controlled 3 times for a week using digital caliper. Tumor volume was calculated using the following formula: […]
where “a” and “b” are the shortest and the longest diameter, respectively of a given tumor (Tomayko M. M. and Reynolds C. P.: Determination of subcutaneous tumor size in athymic/nude/mice. Cancer Chemother. Pharmacol, 24, p. 148,1989). Mean values (X) and standard deviations (S.D.) were calculated. The statistically significant difference (p) was determined by Student' t test, where appropriate.

Series [4] relates to Wistar rats. Put plainly: Cardiac function by ECG in cisplatin-treated rats. Type of series: in vivo, rat. The settings on record: cisplatin 50 mg/kg daily, compound L 40 mg/kg daily. The method, then: as §2
Cardiac function was monitored by AT-6 ECG on all four limbs. QRS, RR, PR and TQ distances and J point depressions were determined.

Another series concerns BDF1 male mice. Put plainly: Acute toxicity (survival) in normal mice. The class given is in vivo. Conditions: for Survival % / Survivors/Total: 25 days observation. The protocol: In vivo experiments with mice. […] [c.f. Oncology Report (REP/O.O.I./1988/01)]. First generation hybrid BDF1 (C57B1 female×DBA/2 male) adult male mice, weighing 22-24 g, specified pathogen free (SPF) were used for these experiments. The animals were kept in macrolon cages at 22-24° C. (40-50% humidity), with a lighting regimen of 12/12 h light/dark.
The observation period was terminated after 25 days. Of compound “L” doses, the dose of 750 mg/kg body weight, i.p. was lethal (Table 4).

The mark [5] stands for this setting: group 10: CisPt 10 mg/kg i.p., 1 qd.
Setting [6] is: group 13: CisPt 3 mg/kg i.p., 5 qd.
[7] abbreviates: 48 hours, cisplatin 0.35 microgram/ml.
The mark [8] stands for this setting: 40 hours, fluoroacil 13 microgram/ml.

For the compound `N.N.[Cl][Pt][Cl]` [Cisplatin, cis-diammine-dichloroplatinum], in the series on P-388 leukemia cells (setting [5]), the T/C % is reported as 147.0%, the “Long term Percent survival” value is 29% and the “Long term Survivors/Total” value was 2/7. For the same compound, the “Mean Survival (days)” value in the series on P-388 leukemia cells (group 10: CisPt 10 mg/kg i.p., 1 qd, non-long-term survivors (5 mice)) was 16.6 ± 4.6 day⁻¹. Further, in the series with P-388 leukemia cells (setting [6]), the T/C % is 257.0%, the “Long term Percent survival” value was determined as 43% and the “Long term Survivors/Total” value is reported as 3/7. Further, the “Mean Survival (days)” value in the series with P-388 leukemia cells (group 13: CisPt 3 mg/kg i.p., 5 qd, 4 mice) was found to be 29.0 ± 6.1 day⁻¹. For the same compound, in the series with Wistar rats [1], the “Enzymatic activity CK (creatine-kinase)” value is recorded as 9776 mU/ml, the “Enzymatic activity CS (citrate-synthase)” value came to 22 mU/ml, the “Enzymatic activity GOT (glutamate-oxalacetate-transaminase)” value amounted to 273 mU/ml and the “Enzymatic activity GPT (glutamate-piruvate-transaminase)” value came to 87 mU/ml. Further, in the series with Wistar rats [1], the “Enzymatic activity LDH (lactate dehydrogenase)” value turned out to be 5136 mU/ml and the “Enzymatic activity LipDH (lipoamide-dehydrogenase)” value is 69 mU/ml. In series [2] (setting [7]), the “Surviving cell (%)” value turned out to be 12 ± 4%. Moreover, the “One month survival (%)” value with Wistar rats [3] is given as 25%. In the series on S-180 sarcoma, the “Tumor growth inhibitory effect (tumor growth curves, mean tumor volumes)” value is reported as “significant inhibitory effect”. Moreover, in the series on Wistar rats [4], the J point depression stood at 2.1 ± 0.3 mm, the QRS turned out to be 102 ms and the QRS intensity entry is listed as “fluctuating”.

Regarding `O=c1[nH]cc(F)c(=O)[nH]1` [Fluoroacil, 5-fluoro-2,4(1H,3H)pyrimidinedione], the “Surviving cell (%)” value in series [2] (setting [8]) is listed as 13 ± 3%.

`Cl.Cl.NC(=NOCC(O)CN1CCCCC1)c1cccnc1` (stereo not drawn) [compound “L”, O-(3-piperidino-2-hydroxyl-1-propyl)niconitic acid amidoxime dihydrochloride]: the “Surviving cell (%)” value in series [2] (setting [8]) and in series [2] (setting [7]) was 51 ± 8% in each case. The “Toxicity evaluated on the basis of survival” value is given as “lethal” in the series with BDF1 male mice (compound L 750 mg/kg body weight, i.p.) and “no effect on the survival” with BDF1 male mice (other single compound L treatments (Table 4)). The Survival % amounted to 100% with BDF1 male mice (group 1: 200 mg/kg i.p., 1 qd); 0% with BDF1 male mice (group 2: 750 mg/kg i.p., 1 qd); 100% with BDF1 male mice (group 3: 2000 mg/kg p.o., 1 qd); 100% in the series with BDF1 male mice (group 4: 100 mg/kg i.p., 5 qd). The Survivors/Total with BDF1 male mice (group 1: 200 mg/kg i.p., 1 qd) is reported as 7/7; in the series on BDF1 male mice (group 2: 750 mg/kg i.p., 1 qd) it was 0/7; in the series with BDF1 male mice (group 3: 2000 mg/kg p.o., 1 qd), 7/7; in the series on BDF1 male mice (group 4: 100 mg/kg i.p., 5 qd), 7/7.
